This is an account of results in patent US8765946B2, “Methods of preparing and using quinazoline and quinoline derivatives” (priority 2006, dated 2014).

SMILES strings stand for the structures. Read-outs that look alike come from different tables or passages of the source.

Assay [1] addresses T1, A431 cells EGFR-TK phosphorylation stimulated by EGF (Homo sapiens, UniProt P00533).
T1 construct: against A431 cells EGFR-TK; endogenous in cells; host or cells: A431 cells
As to the kind of experiment: Inhibition of cellular EGFR-TK phosphorylation stimulated by EGF in A431 cells. The class given is cell-based. To be noted: for inhibition at 3 µM: A-431, concentration of 3 μM, A431 cells, EGF stimulated, one-time measurement at a single concentration (preliminary selection), NA = No activity, read-out: Inhibition Percent (%). How it is done: Inhibition Experiment of Cellular Epidermal Growth Factor Receptor Tyrosine Kinase
1) A431 cells were cultured in a medium which was prepared by adding 10% FCS into another medium comprising 50% DMEM and 50% F12.
2) A431 cells grown in six-well plates were cultured in a serum-free medium for 24 hours. During the 24 hour period the medium was replenished once after 12 hours.
3) A solution containing a compound to be assessed was added the A431 cells and the cells were cultured for 2 hours, supplemented twice by a medium free of the compound, and then EGF (100 ng/well) was added, and cultured for 5 minutes.
4) A431 cell homogenate was prepared by Laemili buffer which comprised 2% sodium dodecyl sulfonate (SDS), 5% 2-mercaptoethanol, 10% glycerol and 5 mM Tris (pH 6.8).
(§1) 5) The A431 cell homogenate was heated for 5 minutes at 100° C.
6) Proteins in the A431 cell homogenates were separated by PAGE and transferred onto a nitrocellulose membrane, and an infrared reading was obtained.

Assay [2] concerns A431 cells. As to the kind of experiment: Cell growth inhibition assay (MTS assay), A431. In kind it is cell-based. To be noted: Homo sapiens. Background: Formazan colour is commonly taken as a measure of viable cells.
Assay [3] concerns the target T1, A431 cells EGFR-TK phosphorylation stimulated by EGF. As to the kind of experiment: Irreversible inhibition of cellular EGFR-TK (A431 cells, inhibition and recovery). To be noted: for Inhibition percent(%): A431 cells, 2 hours with compound, supplemented twice by compound-free medium, then EGF; for Activity (irreversible or reversible inhibitor): A431 cellular model test. The class given is cell-based. The protocol:
Irreversible Inhibition of Cellular Epidermal Growth Factor Receptor Tyrosine Kinase (EGFR-TK)
1) A431 cells were cultured in a medium prepared by adding 10% FCS into another medium comprising 50% DMEM and 50% F12.
2) The A431 cells grown in six-well plates were cultured in a serum-free medium for 24 hours, during the period the medium was replenished once after 12 hours.
3) A solution containing a compound to be assessed was added to the A431 cells and cultured for 2 hours, supplemented twice by a medium free of the compound, and then EGF (100 ng/well) was added, and cultured for 5 minutes.
4) A431 cell homogenate was prepared by Laemili buffer which comprised 2% sodium dodecyl sulfonate (SDS), 5% 2-mercaptoethanol, 10% glycerol and 5 mM Tris; the pH value is 6.8.
as §1
6) Proteins in the A431 cell homogenates were separated by PAGE, transferred onto a nitrocellulose membrane, and an infrared reading was obtained.

In assay [4] the test system is SK-Br-3 cells. As to the kind of experiment: Cell growth inhibition assay (MTS assay), SK-Br-3. To be noted: Homo sapiens, SK-BR-3, 48 h, read-out: Growth inhibition activity (EC50) SK-Br-3.
Procedure: (§2) Cell Growth Inhibition Assay (MTS Assay)
(§3) A431: human epithelial adenocarcinoma cell strain; LoVo: human colorectal cancer cell strain; BT474: breast cancer; SK-Br-3: breast cancer; SIT solution (SIGMA); RPMI1640 culture solution; phosphoric acid buffer; Dimethyl Sulphoxide (DMSO); MTS solution (Promega), 96 well cell culture plate, representative anti-cancer compounds.
(§4) The cells were cultured overnight under the condition of 5% CO2 and 37° C. The next day, representative anti-cancer compounds (between 3 and 10 mM) were dissolved by dimethyl sulphoxide (DMSO) as a mother solution. Adriamycin was used as positive control, DMSO was used as negative control. According to experimental design, the mother solution was diluted and added to the 96 well cell culture plate, cultured for 48 hours under the condition of 5% CO2 and 37° C. Subsequently, 20 μL of MTS solution was added to each well of the 96 well cell culture plate and cultured for another 2 to 4 hours under the condition of 5% CO2 and 37° C. Absorbance was read at 490 nm wavelength, and converted into cell survival rate.
(§5) For each concentration, there two measurements were taken and the average was obtained.
Assay [5] has as its target T2, BT474 cells Her-2 receptor TK phosphorylation stimulated by Her-2 (Homo sapiens, UniProt P04626).
T2 construct: against BT474 cells; endogenous in cells; host or cells: BT474 cells
As to the kind of experiment: Inhibition of BT474 cells Her-2 receptor TK phosphorylation. In kind it is cell-based. How it is done:
Following literature procedured, inhibitory activity of representative compounds against BT474 cells Her-2 receptor TK phosphorylation stimulated by Her-2 was measured, and partial results are listed in Table 6.

The test system of assay [6] is BT474 cells. As to the kind of experiment: Cell growth inhibition assay (MTS assay), BT474. To be noted: Homo sapiens, BT-474, 48 h, read-out: Growth inhibition activity (EC50) BT474.
Procedure: as §2, §3, §4, §5
The subject of assay [7] is colorectal cancer LoVo cells. As to the kind of experiment: Cell growth inhibition assay (MTS assay), LoVo. In kind it is cell-based. To be noted: Homo sapiens, 48 hours.
The mark [8] stands for this setting: A431 cells EGFR-TK phosphorylation stimulated by EGF (Table 4).
Setting [9] is: A431 cells EGFR-TK phosphorylation stimulated by EGF (Table 5).
[10] abbreviates: A-431, A431 cells, MTS, 48 hours, read-out: Growth inhibition activity EC50.

T1 sequence (P00533 25-1210): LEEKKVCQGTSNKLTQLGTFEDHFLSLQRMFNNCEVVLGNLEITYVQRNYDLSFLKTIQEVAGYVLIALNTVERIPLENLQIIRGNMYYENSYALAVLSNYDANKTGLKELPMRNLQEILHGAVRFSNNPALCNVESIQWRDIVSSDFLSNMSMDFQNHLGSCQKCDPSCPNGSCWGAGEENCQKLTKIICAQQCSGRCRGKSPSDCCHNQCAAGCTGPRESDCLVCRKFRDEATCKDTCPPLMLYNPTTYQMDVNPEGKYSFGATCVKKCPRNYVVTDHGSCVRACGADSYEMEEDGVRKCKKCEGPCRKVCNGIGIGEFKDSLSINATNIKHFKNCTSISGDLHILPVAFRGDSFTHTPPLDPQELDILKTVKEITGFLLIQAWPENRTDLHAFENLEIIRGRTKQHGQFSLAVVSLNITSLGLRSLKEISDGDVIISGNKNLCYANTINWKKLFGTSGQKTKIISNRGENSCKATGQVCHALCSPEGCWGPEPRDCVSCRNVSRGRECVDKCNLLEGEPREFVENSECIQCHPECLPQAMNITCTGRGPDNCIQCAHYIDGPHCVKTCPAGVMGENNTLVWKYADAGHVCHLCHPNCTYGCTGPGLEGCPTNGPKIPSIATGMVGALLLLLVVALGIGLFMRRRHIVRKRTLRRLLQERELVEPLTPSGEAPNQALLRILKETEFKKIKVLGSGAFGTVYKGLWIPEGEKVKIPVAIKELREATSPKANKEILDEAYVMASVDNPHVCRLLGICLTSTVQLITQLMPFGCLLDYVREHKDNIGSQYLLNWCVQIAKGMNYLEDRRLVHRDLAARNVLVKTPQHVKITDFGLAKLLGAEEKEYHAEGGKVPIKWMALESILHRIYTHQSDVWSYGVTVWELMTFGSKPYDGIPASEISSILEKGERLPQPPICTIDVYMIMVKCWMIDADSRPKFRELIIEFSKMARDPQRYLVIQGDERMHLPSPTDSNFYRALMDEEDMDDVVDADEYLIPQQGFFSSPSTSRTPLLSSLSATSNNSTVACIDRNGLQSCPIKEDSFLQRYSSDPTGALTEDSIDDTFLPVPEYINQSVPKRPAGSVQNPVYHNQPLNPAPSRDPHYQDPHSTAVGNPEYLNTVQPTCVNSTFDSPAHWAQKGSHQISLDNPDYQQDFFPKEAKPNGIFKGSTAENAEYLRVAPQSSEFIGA
T2 sequence (P04626 23-1255): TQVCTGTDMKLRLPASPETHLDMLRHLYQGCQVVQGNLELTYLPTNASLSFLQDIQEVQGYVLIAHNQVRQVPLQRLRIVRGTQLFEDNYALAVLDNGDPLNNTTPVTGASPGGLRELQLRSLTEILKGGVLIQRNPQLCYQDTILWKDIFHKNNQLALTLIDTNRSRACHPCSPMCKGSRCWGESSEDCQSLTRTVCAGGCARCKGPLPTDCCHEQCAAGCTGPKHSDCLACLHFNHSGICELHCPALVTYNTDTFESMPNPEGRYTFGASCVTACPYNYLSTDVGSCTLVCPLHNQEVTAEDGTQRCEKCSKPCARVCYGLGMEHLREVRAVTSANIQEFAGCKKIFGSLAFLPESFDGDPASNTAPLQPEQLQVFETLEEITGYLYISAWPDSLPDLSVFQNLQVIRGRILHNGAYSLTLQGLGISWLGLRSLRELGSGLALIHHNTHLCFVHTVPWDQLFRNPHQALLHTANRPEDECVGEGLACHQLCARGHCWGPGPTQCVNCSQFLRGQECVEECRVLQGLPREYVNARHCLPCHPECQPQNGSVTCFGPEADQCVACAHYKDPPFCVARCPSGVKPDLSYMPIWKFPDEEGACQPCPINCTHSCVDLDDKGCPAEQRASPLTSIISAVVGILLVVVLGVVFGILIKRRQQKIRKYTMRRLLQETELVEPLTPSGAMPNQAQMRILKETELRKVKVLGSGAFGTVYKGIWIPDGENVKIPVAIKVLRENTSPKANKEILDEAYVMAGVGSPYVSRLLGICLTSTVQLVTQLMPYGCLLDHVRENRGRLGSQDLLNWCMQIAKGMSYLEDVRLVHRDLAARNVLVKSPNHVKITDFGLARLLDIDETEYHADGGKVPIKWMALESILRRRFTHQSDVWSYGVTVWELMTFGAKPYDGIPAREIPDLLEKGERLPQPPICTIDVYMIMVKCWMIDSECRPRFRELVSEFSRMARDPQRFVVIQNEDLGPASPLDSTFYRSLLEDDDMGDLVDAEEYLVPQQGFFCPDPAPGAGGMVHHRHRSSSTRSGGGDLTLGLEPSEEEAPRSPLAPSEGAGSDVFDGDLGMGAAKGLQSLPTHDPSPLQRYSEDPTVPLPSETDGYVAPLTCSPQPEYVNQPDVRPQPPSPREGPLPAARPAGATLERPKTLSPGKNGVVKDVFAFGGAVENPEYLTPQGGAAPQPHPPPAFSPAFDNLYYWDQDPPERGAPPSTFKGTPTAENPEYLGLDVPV

Broadly, the EC50 is the midpoint of the concentration-response curve. Usually inhibition stands for the share of the control response that was lost under treatment. With `O=C(C=C1CCNCC1)Nc1ccc2ncnc(Nc3ccc(F)c(Cl)c3)c2c1` [Example 32, N-(4-(3-chloro-4-fluorophenylamino)quinazolin-6-yl)-2-(piperidin-4-ylidene)acetamide], the 50% effective concentration (EC50) in assay [1] (setting [8]) was determined as 90 nM; in assay [1] (setting [9]) it was 90 nM; in assay [2] (setting [10]), 0.6 µM. Further, the inhibition at 3 µM in assay [1] was 87%. Further, in assay [3], the “Inhibition percent(%)” value was found to be 78%. Also, the “Activity (irreversible or reversible inhibitor)” value in assay [3] was “Irreversible inhibitor”.
For the compound `O=C(C=C1CCNCC1)Nc1ccc2ncnc(Nc3cccc(Br)c3)c2c1` [Example 33, N-(4-(3-bromophenylamino)quinazolin-6-yl)-2-(piperidin-4-ylidene)acetamide], the half-maximal effective concentration (EC50) in assay [1] (setting [8]) was determined as 38 nM; in assay [1] (setting [9]), 38 nM; in assay [2] (setting [10]) it was 0.1 µM. In assay [1], the inhibition at 3 µM is 94%. In assay [3], the “Inhibition percent(%)” value was 89%. In assay [3], the “Activity (irreversible or reversible inhibitor)” value is “Irreversible inhibitor”.
Turning to `COc1cc2ncnc(Nc3ccc(F)c(Cl)c3)c2cc1NC(=O)C=C1CCNCC1` [Example 43, N-(4-(3-chloro-4-fluorophenylamino)-7-methoxyquinazolin-6-yl)-2-(piperidin-4-ylidene)acetamide], the EC50 came out at 520 nM in assay [4]; 350 nM in assay [5]; 610 nM in assay [6]; 0.11 µM in assay [2] (setting [10]); 1500 nM in assay [7]. For the same compound, the inhibition at 3 µM in assay [1] amounted to 91%.
Regarding `COc1cc2ncnc(Nc3ccc(F)c(Cl)c3)c2cc1NC(=O)C=C1CCN(C)CC1` [Example 72, N-(4-(3-chloro-4-fluorophenylamino)-7-methoxyquinazolin-6-yl)-2-(1-methylpiperidin-4-ylidene)acetamide], the EC50 amounted to 800 nM in assay [4]; 820 nM in assay [5]; 1310 nM in assay [6]; 0.09 µM in assay [2] (setting [10]); 1800 nM in assay [7]. Besides, in assay [1], the inhibition at 3 µM was found to be 97%.
For `COCCN1CCC(=CC(=O)Nc2cc3c(Nc4ccc(F)c(Cl)c4)ncnc3cc2OC)CC1` [Example 73, N-(4-(3-chloro-4-fluorophenylamino)-7-methoxyquinazolin-6-yl)-2-(1-(2-methoxyethyl)piperidin-4-ylidene)acetamide], the EC50 in assay [4] was 2310 nM; in assay [5], 1700 nM; in assay [6] it was 21500 nM; in assay [2] (setting [10]), 0.63 µM; in assay [7], 8000 nM. Also, the inhibition at 3 µM in assay [1] turned out to be 82%.
Regarding `COc1cc2ncnc(Nc3ccc(OCc4ccccn4)c(Cl)c3)c2cc1NC(=O)C=C1CCNCC1` [Example 108, N-(4-(3-chloro-4-(pyridin-2-ylmethoxy)phenylamino)-7-methoxyquinazolin-6-yl)-2-(piperidin-4-ylidene)acetamide], the EC50 is 530 nM in assay [4]; 180 nM in assay [5]; 1570 nM in assay [6]; 3 µM in assay [2] (setting [10]); 7000 nM in assay [7].
`CS(=O)(=O)CCNCc1ccc(-c2ccc3ncnc(Nc4ccc(OCc5cccc(F)c5)c(Cl)c4)c3c2)o1` [Lapatinib, reference compound]: the EC50 amounted to 70 nM in assay [4]; 120 nM in assay [6]; 1.19 µM in assay [2] (A-431, 48 h, read-out: Growth inhibition activity EC50 (μM)).
